Results on one substance are retold here after US6184370A, “Receptor-binding determinant from leukaemia inhibitory factor” (Amrad Corporation Limited, priority 1994, dated 2001).

Series [1] deals with M1 cells. In words: Serum dose inhibition of M1 colony differentiation by normal mouse serum (mLBP). The class given is cell-based, murine. As to conditions: up to 200 U/ml hLIF. The procedure:
For serum dose inhibition assays, the specific activity of each LIF preparation was determined by titration in cultures of M1 cells. Aliquots of normal mouse serum (containing approximately 5 μg/ml mLBP) were then added in serial 2-fold dilutions to cultures of M1 cells that also contained a just maximal concentration (200 U) of mLIF (SEQ. ID. NO:1), hLIF (SEQ. ID. NO:2) or m-hLIF hybrid. Assays including mLIF and hLIF gave identical results when either crude mouse serum or a highly purified preparation of mLBP was used. Hybrids were assessed for mLIF or hLIF character from the dilution of serum required to block 50% of their M1 cell differentiation-inducing activity.
A 1:4 to 1:8 dilution of normal mouse serum (equivalent to ~0.5-1 μg/ml mLBP) is required to block 50% of the M1 differentiation-inducingactivity of up to 200 U/ml mLIF, whereas, due to the higher affinity of hLIF for mLBP, a 1:8192 dilution of serum (~0.6 ng/ml mLBP) is sufficient to block 50% of the M1 activity of up to 200 U/ml hLIF. This ability of mLBP to inhibit the differentiation-inducing activity of LIF in a species-specific manner was utilized as a second assay that distinguished hLIF from mLIF. […]

The test system of series [2] is M1 cells. As to conditions: background statement; cited from earlier work.
The test system of series [3] is mLBP (soluble mLIF-R α-chain). Nature of the series: Competitive inhibition of [125I]mLIF binding to mLBP. Details: species or system mouse. As to conditions: in words. The procedure: Normal mouse serum was used as a source of mLBP. For competitive binding experiments, 50 μl aliquots of unlabelled LIF or a mouse-human LIF hybrid were added to 96-well filtration assay plates containing a 0.65 micron Durapore membrane (Millipore, Mass., U.S.A.) with 20 μl aliquots of a 1/10 to 1/20 dilution of normal mouse serum, 10 μl radiolabelled ligand and 25 μl Concanavalin-A Sepharose 4B (ConA-Sepharose, Pharmacia, Uppsala) (diluted 1:4 in 100 mM sodium acetate pH6.0 containing 1 mM MnCl2, 1 mM MgCl2 and 1 mM CaCl2; this and all subsequent buffers contained 0.02% w/v sodium azide and 0.02% v/v Tween 20) and incubated at room temperature overnight with agitation. Bound and free radioactivity were separated by vacuum filtration of the supernatant and the ConA-Sepharose pellet was washed once with 200 μl cold PBS. Assay plates containing the cell pellet were then exposed to a phosphor screen (Molecular Dynamics, Calif., U.S.A.) for 16-24 hours and the results quantified using Imagequant version 3.0 software (Molecular Dynamics).
The structural integrity of all m-hLIF chimeras was also verified by evaluating their ability to bind correctly to the mLIF-R α-chain.

For series [4], the system named is murine M1 leukaemic colonies. Nature of the series: M1 differentiation assay (specific biological activity). The class given is cell-based. The procedure: The functional activity of the m-hLIF hybrids was assayed by their ability to induce differentiation in murine M1 leukaemic colonies. M1 differentiation assays were performed as described (Metcalf et al, 1988). The specific activity of each hybrid was expressed as the units of M1 differentiation-inducing activity per milligram of protein.
The protein concentration of each purified sample was determined by amino acid analysis, and the amount of biologically active protein in each sample was estimated by its ability to induce differentiation in mouse M1 myeloid leukaemic colonies. An internal standard of mLIF (10^4 U/ml) was used to normalise all M1 cell bioassays (50 U/ml of LIF is defined as the concentration of LIF required for half maximal stimulation).

Series [5] deals with mLBP (soluble mLIF-R α-chain). Nature of the series: Competitive inhibition of [125I]hLIF binding to mLBP (hLIF-like activity score). The note with it: logarithmic scale, hLIF = 100%, mLIF = 0%; mean±SEM. The arrangement: species or system mouse. The text has this:
Reference is made herein to the subject molecule having at least about 35% hLIF-like activity. More preferably, the molecule has at least about 50% hLIF-like activity and even more preferably at least about 70% hLIF-like activity. hLIF-like activity is defined in terms of the ability for a molecule to compete for ^125 I-hLIF binding to mLBP based on the equation: [formula]
wherein xm is the dose of unlabelled mLIF; xh is the dose of unlabelled hLIF; xc is the dose of the molecule (e.g. protein, polypeptide or peptide) required to give 50% inhibition of ^125 I-hLIF binding to mLBP.
Normal mouse serum was used as a source of mLBP. […] Bound and free radioactivity were separated by vacuum filtration of the supernatant and the ConA-Sepharose pellet was washed once with 200 μl cold PBS. Assay plates containing the cell pellet were then exposed to a phosphor screen (Molecular Dynamics, Calif., U.S.A.) for 16-24 hours and the results quantified using Imagequant version 3.0 software (Molecular Dynamics). […]

For the substance “hLIF: human leukaemia inhibitory factor, H1-180 (SEQ. ID. NO:2), recombinant from E. coli”, in the series with M1 cells [1], the “mLBP concentration equivalent to serum dilution blocking 50% of M1 activity” value is ~ 0.6 ng/ml. Moreover, in the series on M1 cells [2], the “mLBP more potent inhibitor of hLIF than mLIF (inhibition of biological responses to LIF)” value was “approximately 1000 fold”. For the same substance, in series [3], the “ability to compete for [125I]mLIF binding to mLBP” value is recorded as “approximately equal ability”. Moreover, the “biological activity in a mouse cell bioassay, in words” value in series [4] is reported as “nearly equal biological activities”. The “specific biological activity (units of LIF activity per milligram of protein)” value in series [4] (mouse M1 cells, 50 U/ml = half maximal stimulation) is reported as 1-3×10^8 U/mg. Also, the “hLIF-like activity (percentage human score) calculated from ID50 for inhibition of [125I]hLIF binding to mLBP” value in series [5] is reported as 100%.
